Source: patent publication US20150044144A1, “DISINFECTANT SOLUTION” (RAYMAT MATERIALS, INC., priority 2012, published 2015)

Assay: Screening stability of different colorants with ORP by UV-Vis
Conditions: 300 ppm colorant; for Colour / UV-vis stability of colorant in ORP solution: 25° C., vs control water solution

COc1cc(S(=O)(=O)[O-])c(C)cc1N=Nc1c(O)ccc2cc(S(=O)(=O)[O-])ccc12.[Na+].[Na+] [Food dye FD&C red 40]
UV-visible absorbance of the colored ORP solution (high and low FAC ORP solutions, after 10 days): decreased significantly

O=C([O-])c1ccccc1-c1c2cc(Br)c(=O)c(Br)c-2oc2c(Br)c([O-])c(Br)cc12.[Na+].[Na+] [Eosine YS Acid Red 87 D&C red 22]
Colour / UV-vis stability of colorant in ORP solution (high concentration ORP (100 ppm FAC)): the red color disappeared quickly

O=C1OC2(c3ccccc31)c1cc(Br)c(O)c(Br)c1Oc1c2cc(Br)c(O)c1Br [Eosine Free Acid Solvent Red 43 D&C red 21]
Colour / UV-vis stability of colorant in ORP solution (low concentration ORP (30 ppm FAC)): the red color disappeared quickly
